Data reported in article PMC4411097, “Pachymic Acid Inhibits Growth and Induces Apoptosis of Pancreatic Cancer In Vitro and In Vivo by Targeting ER Stress” (PLoS ONE, 2015).

Legend:
[1] = tested on: advanced pancreatic cancer; details: cited from earlier work
[2] = tested on: ER stress response proteins in MIA PaCa-2 cells; assay: Western blot of ER stress response proteins; assay type: cell-based, human; details: MIA PaCa-2, TUDCA 200 μM with PA 30 μM, 24 h
Experimental: (§1) PANC-1, MIA PaCa-2 cells were treated with PA (0–30 μM) for 10 min, 30 min or 24 h, respectively. Whole protein extracts isolated from cells and tumor tissues were prepared and western blot analysis with anti-cleaved PARP, anti-XBP-1s, anti-ATF6, anti-ATF4, anti-Hsp70, anti-CHOP, anti-phospho-eIF2α or anti-eIF2α antibodies were performed as previously described. Western blots were quantified with HP-Scanjet 550c and analyzed by UN-SCAN-IT software (Silk Scientific, Orem, UT). Three independent experiments were done for all the immunoblot studies and quantitative data composed of all the experiments with statistical analysis were added below the representative blot image.

[3] = tested on: ER stress response proteins in PANC-1 cells; assay: Western blot of ER stress response proteins; assay type: cell-based, human; details: PANC-1, TUDCA 200 μM with PA 30 μM, 24 h
Experimental: as §1

MIA PaCa-2 cells = assay: Apoptosis, Cell Death Detection ELISA (cytoplasmic histone-associated DNA fragments); assay type: cell-based, human; details: MIA PaCa-2, TUDCA 200 μM with PA 30 μM, 24 h
Experimental: (§2) Apoptosis induction in PA-treated cells was assessed by quantitation of cytoplasmic histone-associated DNA fragments and western blotting for PARP cleavage (c-PARP). The Cell Death Detection ELISA^PLUS Kit (Roche, Indianapolis, IN) was used to detect the amount of cytoplasmic histone-associated DNA fragments according to the manufacturer’s instructions and expressed relative to vehicle-treated cells (set equal to 1).

PANC-1 cells = assay: as above; assay type: cell-based, human; details: PANC-1, TUDCA 200 μM with PA 30 μM, 24 h
Experimental: as §2

[4] = tested on: PARP cleavage (c-PARP) in PANC-1 cells; assay: Western blot for PARP cleavage (c-PARP); assay type: cell-based, human; details: PANC-1, TUDCA 200 μM with PA 30 μM, 24 h
Experimental: as §2, §1

[5] = tested on: PARP cleavage (c-PARP) in MIA PaCa-2 cells; assay: Western blot for PARP cleavage (c-PARP); assay type: cell-based, human; details: MIA PaCa-2, TUDCA 200 μM with PA 30 μM, 24 h
Experimental: as §2, §1

Structure (SMILES)	Response rate ([1]; advanced pancreatic cancer)	Median survival time ([1]; pancreatic cancer)	Tumor response rate ([1]; pancreatic cancer)	Effect of TUDCA on PA-induced ATF4 and CHOP [2]	Effect of TUDCA on PA-induced ATF4 and CHOP [3]	Effect of TUDCA on PA-associated nuclear DNA fragmentation (MIA PaCa-2 cells)	Effect of TUDCA on PA-associated nuclear DNA fragmentation (PANC-1 cells)	Effect of TUDCA on PA-associated c-PARP expression [4]	Effect of TUDCA on PA-associated c-PARP expression [5]
Nc1ccn([C@@H]2O[C@H](CO)[C@@H](O)C2(F)F)c(=O)n1 [Gemcitabine]	less than 20%	5 months	12%						
C[C@H](CCC(=O)NCCS(=O)(=O)O)[C@H]1CC[C@H]2[C@@H]3[C@@H](O)C[C@@H]4C[C@H](O)CC[C@]4(C)[C@H]3CC[C@]12C [TUDCA, tauroursodeoxycholic acid, reference compound]				blocked the induction of ATF4 and CHOP	blocked the induction of ATF4 and CHOP	rescued	rescued	blocked the enormous increase in the expression of c-PARP	blocked the enormous increase in the expression of c-PARP
